Laboratory results taken from US11130793B2, “GLP-1/GLP-2 dual agonists” (Zealand Pharma A/S, priority 2016, dated 2021).
Like-named read-outs stand apart in the source and are kept apart here. Square brackets hold non-standard residues; d marks the D form. Peptide text beside a SMILES is read from it. Aib = CC(C)(N)C(=O)O

Columns and labels:
[1] = molecular target: T1, human GLP-1 receptor (Homo sapiens, UniProt P43220); test: GLP-1 receptor potency assay (cAMP AlphaScreen, HEK293 cells stably expressing GLP-1R); format: cell-based; conditions: cAMP response, HEK293 cells expressing human GLP-1R; read-out: EC50 GLP-1
T1 construct: expressed in transfected cells
T1 sequence (P43220 24-463): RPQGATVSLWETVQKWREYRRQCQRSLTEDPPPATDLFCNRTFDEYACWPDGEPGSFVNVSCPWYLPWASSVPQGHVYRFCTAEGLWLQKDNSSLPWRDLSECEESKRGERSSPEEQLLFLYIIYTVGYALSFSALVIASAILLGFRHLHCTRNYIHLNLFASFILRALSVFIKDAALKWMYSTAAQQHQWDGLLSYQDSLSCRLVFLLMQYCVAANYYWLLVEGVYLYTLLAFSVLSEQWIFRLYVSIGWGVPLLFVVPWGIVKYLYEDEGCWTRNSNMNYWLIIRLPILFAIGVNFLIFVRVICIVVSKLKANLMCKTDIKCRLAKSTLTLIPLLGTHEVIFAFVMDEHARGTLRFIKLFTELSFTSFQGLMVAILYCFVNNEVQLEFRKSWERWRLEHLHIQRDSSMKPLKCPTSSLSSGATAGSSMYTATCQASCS
Summary of the method: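 A HEK293 clone stably expressing cloned human GLP-1R (G418-selected) was stimulated with compound. Intracellular cAMP was measured by AlphaScreen. Responses were normalized to positive and vehicle controls, and EC50 and maximal response were fitted by 4-parameter logistic regression.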

[2] = molecular target: T2, human GLP-2 receptor (Homo sapiens, UniProt O95838, D470N); test: GLP-2 receptor potency assay (cAMP AlphaScreen, HEK293 cells stably expressing GLP-2R); format: cell-based; conditions: cAMP response, HEK293 cells expressing human GLP-2R
T2 sequence (O95838 1-553 D470N): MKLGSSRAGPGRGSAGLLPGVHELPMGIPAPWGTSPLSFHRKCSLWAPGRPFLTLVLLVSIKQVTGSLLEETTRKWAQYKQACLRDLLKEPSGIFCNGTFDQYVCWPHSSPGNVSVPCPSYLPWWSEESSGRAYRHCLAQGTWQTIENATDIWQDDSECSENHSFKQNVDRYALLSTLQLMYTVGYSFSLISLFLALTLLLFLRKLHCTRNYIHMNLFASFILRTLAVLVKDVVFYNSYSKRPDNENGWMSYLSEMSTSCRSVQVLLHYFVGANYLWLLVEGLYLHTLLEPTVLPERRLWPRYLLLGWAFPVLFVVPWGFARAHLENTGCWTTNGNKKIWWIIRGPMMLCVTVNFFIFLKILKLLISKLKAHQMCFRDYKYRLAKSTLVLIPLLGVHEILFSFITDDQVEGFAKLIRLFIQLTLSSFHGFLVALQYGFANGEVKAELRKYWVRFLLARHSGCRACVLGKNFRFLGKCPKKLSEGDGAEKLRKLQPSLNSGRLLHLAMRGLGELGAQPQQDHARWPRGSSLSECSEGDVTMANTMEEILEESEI
Summary of the method: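 HEK293 cells stably expressing human GLP-2R (G418-selected clone); intracellular cAMP measured by AlphaScreen. Responses normalized to positive and vehicle controls; EC50 and maximal response from 4-parameter logistic fit.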

[3] = Solubility assessment by turbidity absorbance at 325 nm; format: physicochemical; conditions: 1 mg/ml peptide
Protocol: A stock solution of the test peptide (2 mg/ml; determined from the weighed amount of peptide) in demineralized water adjusted to pH 2.5 with HCl was prepared, and aliquots were diluted 1:1 in 100 mM acetate buffer (pH 4.0 and pH 5.0), 100 mM histidine buffer (pH 6.0 and pH 7.0) and 100 mM phosphate buffer (pH 6.0, pH 7.0 and pH7.5), respectively, and loaded in a standard flat-bottom, non-sterile 96-well UV Microplate. The absorbance of samples (single samples, n=1) at 280 and 325 nm was measured in an absorbance-based plate reader, which was preheated to ambient temperature (typically 25° C.).

[4] = 100 mM acetate buffer pH 4.0, ambient temperature, read-out: Solubility, Acetate buffer pH 4
[5] = 100 mM acetate buffer pH 5.0, ambient temperature, read-out: Solubility, Acetate buffer pH 5
[6] = 100 mM histidine buffer pH 6.0, ambient temperature, read-out: Solubility, Histidine buffer pH 6
[7] = 100 mM histidine buffer pH 7.0, ambient temperature, read-out: Solubility, Histidine buffer pH 7
[8] = 100 mM phosphate buffer pH 6.0, ambient temperature, read-out: Solubility, Phosphate buffer pH 6
[9] = 100 mM phosphate buffer pH 7.0, ambient temperature, read-out: Solubility, Phosphate buffer pH 7
[10] = 100 mM phosphate buffer pH 7.5, ambient temperature, read-out: Solubility, Phosphate buffer pH 7.5

| Molecule | EC50 [1] | EC50 [2] | solubility [3, 4] | solubility [3, 5] | solubility [3, 6] | solubility [3, 7] | solubility [3, 8] | solubility [3, 9] | solubility [3, 10] |
| --- | --- | --- | --- | --- | --- | --- | --- | --- | --- |
| CC[C@H](C)[C@H](NC(=O)[C@H](CC(C)C)NC(=O)[C@H](Cc1c[nH]c2ccccc12)NC(=O)[C@H](C)NC(=O)[C@@H](NC(=O)[C@H](Cc1ccccc1)NC(=O)[C@H](CC(=O)O)NC(=O)[C@H](CCCNC(=N)N)NC(=O)[C@H](C)NC(=O)[C@H](C)NC(=O)[C@H](CCC(N)=O)NC(=O)[C@H](CCC(=O)O)NC(=O)[C@H](CC(=O)O)NC(=O)[C@H](CC(C)C)NC(=O)[C@@H](NC(=O)[C@@H](NC(=O)[C@H](C)NC(=O)[C@H](CC(C)C)NC(=O)[C@H](CCC(=O)O)NC(=O)[C@H](CO)NC(=O)[C@@H](NC(=O)[C@H](Cc1ccccc1)NC(=O)[C@@H](NC(=O)CNC(=O)[C@H](CCC(=O)O)NC(=O)C(C)(C)NC(=O)[C@@H](N)Cc1c[nH]cn1)[C@@H](C)O)[C@@H](C)O)[C@@H](C)O)[C@@H](C)CC)[C@@H](C)CC)C(=O)N[C@@H](C)C(=O)N[C@@H](Cc1c[nH]cn1)C(=O)N[C@@H](CCCCN)C(=O)N[C@H](C(=O)N[C@H](C(=O)N[C@@H](CC(=O)O)C(=O)O)[C@@H](C)O)[C@@H](C)CC [Compound 3] (H-H[Aib]EGTFTSELATILDEQAARDFIAWLIAHKITD-OH) | 7.4 pM | 36 pM | ≥ 1000 µg/mL | < 1000 µg/mL | ≥ 1000 µg/mL | ≥ 1000 µg/mL | ≥ 1000 µg/mL | ≥ 1000 µg/mL | ≥ 1000 µg/mL |
| CC[C@H](C)[C@H](NC(=O)[C@H](Cc1ccccc1)NC(=O)[C@H](CC(=O)O)NC(=O)[C@H](CCCNC(=N)N)NC(=O)[C@H](C)NC(=O)[C@H](C)NC(=O)[C@H](CCC(N)=O)NC(=O)[C@H](CCC(=O)O)NC(=O)[C@H](CC(=O)O)NC(=O)[C@H](CC(C)C)NC(=O)[C@@H](NC(=O)[C@@H](NC(=O)[C@H](C)NC(=O)[C@H](CC(C)C)NC(=O)[C@H](CCC(=O)O)NC(=O)[C@H](CO)NC(=O)[C@@H](NC(=O)[C@H](Cc1ccccc1)NC(=O)[C@H](CO)NC(=O)CNC(=O)[C@H](CCC(=O)O)NC(=O)C(C)(C)NC(=O)[C@@H](N)Cc1c[nH]cn1)[C@@H](C)O)[C@@H](C)O)[C@@H](C)CC)C(=O)N[C@@H](C)C(=O)N[C@@H](Cc1c[nH]c2ccccc12)C(=O)N[C@@H](CC(C)C)C(=O)N[C@H](C(=O)N[C@@H](CCC(=O)O)C(=O)N[C@@H](Cc1c[nH]cn1)C(=O)N[C@@H](CCCCN)C(=O)N[C@H](C(=O)N[C@H](C(=O)N[C@@H](CC(=O)O)C(=O)O)[C@@H](C)O)[C@@H](C)CC)[C@@H](C)CC [Compound 4] (H-H[Aib]EGSFTSELATILDEQAARDFIAWLIEHKITD-OH) | 15 pM | 44 pM | ≥ 1000 µg/mL | < 1000 µg/mL | ≥ 1000 µg/mL | ≥ 1000 µg/mL | ≥ 1000 µg/mL | ≥ 1000 µg/mL | ≥ 1000 µg/mL |
| CC[C@H](C)[C@H](NC(=O)[C@H](CC(C)C)NC(=O)[C@H](Cc1c[nH]c2ccccc12)NC(=O)[C@H](CC(N)=O)NC(=O)[C@@H](NC(=O)[C@H](Cc1ccccc1)NC(=O)[C@H](CC(=O)O)NC(=O)[C@H](CCCNC(=N)N)NC(=O)[C@H](C)NC(=O)[C@H](C)NC(=O)[C@H](CCC(N)=O)NC(=O)[C@H](CCC(=O)O)NC(=O)[C@H](CC(=O)O)NC(=O)[C@H](CC(C)C)NC(=O)[C@@H](NC(=O)[C@@H](NC(=O)[C@H](C)NC(=O)[C@H](CC(C)C)NC(=O)[C@H](CCC(=O)O)NC(=O)[C@H](CO)NC(=O)[C@@H](NC(=O)[C@H](Cc1ccccc1)NC(=O)[C@@H](NC(=O)CNC(=O)[C@H](CCC(=O)O)NC(=O)C(C)(C)NC(=O)[C@@H](N)Cc1c[nH]cn1)[C@@H](C)O)[C@@H](C)O)[C@@H](C)O)[C@@H](C)CC)[C@@H](C)CC)C(=O)N[C@@H](C)C(=O)N[C@@H](Cc1c[nH]cn1)C(=O)N[C@@H](CCCCN)C(=O)N[C@H](C(=O)N[C@H](C(=O)N[C@@H](CC(=O)O)C(=O)O)[C@@H](C)O)[C@@H](C)CC [Compound 33] (H-H[Aib]EGTFTSELATILDEQAARDFINWLIAHKITD-OH) | 4 pM | 41 pM | – | – | – | – | – | – | – |
| CC[C@H](C)[C@H](NC(=O)[C@H](Cc1ccccc1)NC(=O)[C@H](CC(=O)O)NC(=O)[C@H](CCCNC(=N)N)NC(=O)[C@H](C)NC(=O)[C@H](C)NC(=O)[C@H](CCC(N)=O)NC(=O)[C@H](CCC(=O)O)NC(=O)[C@H](CC(=O)O)NC(=O)[C@H](CC(C)C)NC(=O)[C@@H](NC(=O)[C@@H](NC(=O)[C@H](C)NC(=O)[C@H](CC(C)C)NC(=O)[C@H](CCC(=O)O)NC(=O)[C@H](CO)NC(=O)[C@@H](NC(=O)[C@H](Cc1ccccc1)NC(=O)[C@@H](NC(=O)CNC(=O)[C@H](CCC(=O)O)NC(=O)C(C)(C)NC(=O)[C@@H](N)Cc1c[nH]cn1)[C@@H](C)O)[C@@H](C)O)[C@@H](C)O)[C@@H](C)CC)C(=O)N[C@@H](CC(N)=O)C(=O)N[C@@H](Cc1c[nH]c2ccccc12)C(=O)N[C@@H](CC(C)C)C(=O)N[C@@H](CCCCN)C(=O)N[C@@H](CO)C(=O)N[C@@H](Cc1ccc(O)cc1)C(=O)N[C@@H](CCCCN)C(=O)N[C@H](C(=O)N[C@H](C(=O)N[C@@H](CC(=O)O)C(=O)O)[C@@H](C)O)[C@@H](C)CC [Compound 36] (H-H[Aib]EGTFTSELATILDEQAARDFINWLKSYKITD-OH) | 7 pM | 110 pM | – | – | – | – | – | – | – |
| CC[C@H](C)[C@H](NC(=O)[C@H](Cc1ccccc1)NC(=O)[C@H](CC(=O)O)NC(=O)[C@H](CCCNC(=N)N)NC(=O)[C@H](C)NC(=O)[C@H](C)NC(=O)[C@H](CCC(N)=O)NC(=O)[C@H](CCC(=O)O)NC(=O)[C@H](CC(=O)O)NC(=O)[C@H](CC(C)C)NC(=O)[C@@H](NC(=O)[C@@H](NC(=O)[C@H](C)NC(=O)[C@H](CC(C)C)NC(=O)[C@H](CCC(=O)O)NC(=O)[C@H](CO)NC(=O)[C@@H](NC(=O)[C@H](Cc1ccccc1)NC(=O)[C@@H](NC(=O)CNC(=O)[C@H](CCC(=O)O)NC(=O)C(C)(C)NC(=O)[C@@H](N)Cc1c[nH]cn1)[C@@H](C)O)[C@@H](C)O)[C@@H](C)O)[C@@H](C)CC)C(=O)N[C@@H](CC(N)=O)C(=O)N[C@@H](Cc1c[nH]c2ccccc12)C(=O)N[C@@H](CC(C)C)C(=O)N[C@@H](CCCCN)C(=O)N[C@@H](CCC(=O)O)C(=O)N[C@@H](CCC(N)=O)C(=O)N[C@@H](CCCCN)C(=O)N[C@H](C(=O)N[C@H](C(=O)N[C@@H](CC(=O)O)C(=O)O)[C@@H](C)O)[C@@H](C)CC [Compound 37] (H-H[Aib]EGTFTSELATILDEQAARDFINWLKEQKITD-OH) | 7 pM | 160 pM | – | – | – | – | – | – | – |
| CC[C@H](C)[C@H](NC(=O)[C@H](Cc1ccccc1)NC(=O)[C@H](CC(=O)O)NC(=O)[C@H](CCCNC(=N)N)NC(=O)[C@H](C)NC(=O)[C@H](C)NC(=O)[C@H](CCC(N)=O)NC(=O)[C@H](CCC(=O)O)NC(=O)[C@H](CC(=O)O)NC(=O)[C@H](CC(C)C)NC(=O)[C@@H](NC(=O)[C@@H](NC(=O)[C@H](C)NC(=O)[C@H](CC(C)C)NC(=O)[C@H](CCC(=O)O)NC(=O)[C@H](CO)NC(=O)[C@H](CO)NC(=O)[C@H](Cc1ccccc1)NC(=O)[C@H](CO)NC(=O)CNC(=O)[C@H](CCC(=O)O)NC(=O)C(C)(C)NC(=O)[C@@H](N)Cc1c[nH]cn1)[C@@H](C)O)[C@@H](C)CC)C(=O)N[C@@H](C)C(=O)N[C@@H](Cc1c[nH]c2ccccc12)C(=O)N[C@@H](CC(C)C)C(=O)N[C@H](C(=O)N[C@@H](CCC(N)=O)C(=O)N[C@@H](Cc1c[nH]cn1)C(=O)N[C@@H](CCCCN)C(=O)N[C@H](C(=O)N[C@H](C(=O)N[C@@H](CC(=O)O)C(=O)O)[C@@H](C)O)[C@@H](C)CC)[C@@H](C)CC [Compound 41] (H-H[Aib]EGSFSSELATILDEQAARDFIAWLIQHKITD-OH) | 78 pM | 26 pM | – | – | – | – | – | – | – |
| H-HGEGSFSSELATILDEQAARDFIAWLIQHKITD-NH2 [Compound 40] | 1400 pM | 50 pM | – | – | – | – | – | – | – |
